According to ChEMBL document CHEMBL3885881, “DrugMatrix”:

Species: Rattus norvegicus
Test: DrugMatrix - Regimen: Daily Repeat
Assay type: toxicity, organism-based, Sprague-Dawley
Parameters: regimen Daily Repeat, gender Male, age 6-8 weeks
Conditions: in vivo, po, 0 mg/kg, route oral GAVAGE, dose level Control, […]; for ABSOLUTE BASOPHIL / ABSOLUTE EOSINOPHIL / ABSOLUTE LYMPHOCYTE / ABSOLUTE MONOCYTE / ABSOLUTE SEGMENTED NEUTROPHIL / BASOPHIL / EOSINOPHIL / ERYTHROCYTE COUNT / HEMATOCRIT / HEMOGLOBIN / LEUKOCYTE COUNT / LYMPHOCYTE / MEAN CORPUSCULAR HEMOGLOBIN / MEAN CORPUSCULAR HEMOGLOBIN CONCENTRATION / MEAN CORPUSCULAR VOLUME / MONOCYTE / NEUTROPHIL / NUCLEATED RED BLOOD CELLS / PLATELET COUNT: tissue Blood; for ALANINE AMINOTRANSFERASE / ALBUMIN / ALKALINE PHOSPHATASE / ASPARTATE AMINOTRANSFERASE / BLOOD UREA NITROGEN / CARBON DIOXIDE / CHLORIDE / CHOLESTEROL / CREATINE PHOSPHOKINASE / CREATININE / GLUCOSE / LACTATE DEHYDROGENASE / LIPASE / PHOSPHORUS / POTASSIUM / SODIUM / TOTAL BILIRUBIN / TOTAL PROTEIN / URIC ACID: tissue Plasma

CC(C)(Oc1ccc(CCNC(=O)c2ccc(Cl)cc2)cc1)C(=O)O [BEZAFIBRATE]
ABSOLUTE BASOPHIL (72 h, time 3 day): 0 CELLS/uL | ABSOLUTE EOSINOPHIL (72 h, time 3 day): 37.33 CELLS/uL | ABSOLUTE LYMPHOCYTE (72 h, time 3 day): 6295.33 CELLS/uL | ABSOLUTE MONOCYTE (72 h, time 3 day): 122.17 CELLS/uL | ABSOLUTE SEGMENTED NEUTROPHIL (72 h, time 3 day): 861.83 CELLS/uL | BASOPHIL (72 h, time 3 day): 0% | EOSINOPHIL (72 h, time 3 day): 0.5% | ERYTHROCYTE COUNT (72 h, time 3 day): 5.2 x10E6/uL | HEMATOCRIT (72 h, time 3 day): 32.58% | HEMOGLOBIN (72 h, time 3 day): 12.95 G/DL | LEUKOCYTE COUNT (72 h, time 3 day): 7.32 x10E3/uL | LYMPHOCYTE (72 h, time 3 day): 86% | MEAN CORPUSCULAR HEMOGLOBIN (72 h, time 3 day): 24.93 pg | MEAN CORPUSCULAR HEMOGLOBIN CONCENTRATION (72 h, time 3 day): 39.77 G/DL | MEAN CORPUSCULAR VOLUME (72 h, time 3 day): 62.65 fL | MONOCYTE (72 h, time 3 day): 1.67% | NEUTROPHIL (72 h, time 3 day): 11.83% | NUCLEATED RED BLOOD CELLS (72 h, time 3 day): 0 /100WBC | PLATELET COUNT (72 h, time 3 day): 1029 x10E3/uL | ALANINE AMINOTRANSFERASE (72 h, time 3 day): 63.67 u/L | ALBUMIN (72 h, time 3 day): 4.12 G/DL | ALKALINE PHOSPHATASE (72 h, time 3 day): 329.83 u/L | ASPARTATE AMINOTRANSFERASE (72 h, time 3 day): 77.67 u/L | BLOOD UREA NITROGEN (72 h, time 3 day): 18 mg/dL | CARBON DIOXIDE (72 h, time 3 day): 29.67 mmol/L | CHLORIDE (72 h, time 3 day): 102.67 MEQ/L | CHOLESTEROL (72 h, time 3 day): 64.5 mg/dL | CREATINE PHOSPHOKINASE (72 h, time 3 day): 178.67 u/L | CREATININE (72 h, time 3 day): 0.18 mg/dL | GLUCOSE (72 h, time 3 day): 163.83 mg/dL | LACTATE DEHYDROGENASE (72 h, time 3 day): 75.83 u/L | LIPASE (72 h, time 3 day): 10 u/L | PHOSPHORUS (72 h, time 3 day): 8.28 mg/dL | POTASSIUM (72 h, time 3 day): 4.79 MEQ/L | SODIUM (72 h, time 3 day): 142.22 MEQ/L | TOTAL BILIRUBIN (72 h, time 3 day): 0.22 mg/dL | TOTAL PROTEIN (72 h, time 3 day): 5.78 G/DL | URIC ACID (72 h, time 3 day): 0.87 mg/dL | BASOPHIL (120 h, time 5 day): 0.32% | EOSINOPHIL (120 h, time 5 day): 0.58% | ERYTHROCYTE COUNT (120 h, time 5 day): 7.26 x10E6/uL | HEMATOCRIT (120 h, time 5 day): 46.94% | HEMOGLOBIN (120 h, time 5 day): 14.9 G/DL | LEUKOCYTE COUNT (120 h, time 5 day): 8.69 x10E3/uL | LYMPHOCYTE (120 h, time 5 day): 81.52% | MEAN CORPUSCULAR HEMOGLOBIN (120 h, time 5 day): 20.58 pg | MEAN CORPUSCULAR HEMOGLOBIN CONCENTRATION (120 h, time 5 day): 31.8 G/DL | MEAN CORPUSCULAR VOLUME (120 h, time 5 day): 64.68 fL | MONOCYTE (120 h, time 5 day): 2.16% | NEUTROPHIL (120 h, time 5 day): 13.88% | PLATELET COUNT (120 h, time 5 day): 1531.2 x10E3/uL | ALANINE AMINOTRANSFERASE (120 h, time 5 day): 33.2 u/L | ALBUMIN (120 h, time 5 day): 3.74 G/DL | ALKALINE PHOSPHATASE (120 h, time 5 day): 318 u/L | ASPARTATE AMINOTRANSFERASE (120 h, time 5 day): 78.6 u/L | BLOOD UREA NITROGEN (120 h, time 5 day): 6 mg/dL | CHLORIDE (120 h, time 5 day): 108.4 MEQ/L | CHOLESTEROL (120 h, time 5 day): 63 mg/dL | CREATINE PHOSPHOKINASE (120 h, time 5 day): 251 u/L | CREATININE (120 h, time 5 day): 0.18 mg/dL | GLUCOSE (120 h, time 5 day): 125.6 mg/dL | PHOSPHORUS (120 h, time 5 day): 12.06 mg/dL | POTASSIUM (120 h, time 5 day): 5.92 MEQ/L | SODIUM (120 h, time 5 day): 146.8 MEQ/L | TOTAL BILIRUBIN (120 h, time 5 day): 0.16 mg/dL | TOTAL PROTEIN (120 h, time 5 day): 6.06 G/DL | ABSOLUTE BASOPHIL (time 7 day): 0 CELLS/uL | ABSOLUTE EOSINOPHIL (time 7 day): 19 CELLS/uL | ABSOLUTE LYMPHOCYTE (time 7 day): 7803.5 CELLS/uL | ABSOLUTE MONOCYTE (time 7 day): 117.83 CELLS/uL | ABSOLUTE SEGMENTED NEUTROPHIL (time 7 day): 1093 CELLS/uL | BASOPHIL (time 7 day): 0% | EOSINOPHIL (time 7 day): 0.17% | ERYTHROCYTE COUNT (time 7 day): 5.84 x10E6/uL | HEMATOCRIT (time 7 day): 35.75% | HEMOGLOBIN (time 7 day): 13.87 G/DL | LEUKOCYTE COUNT (time 7 day): 9.03 x10E3/uL | LYMPHOCYTE (time 7 day): 87.17% | MEAN CORPUSCULAR HEMOGLOBIN (time 7 day): 23.78 pg | MEAN CORPUSCULAR HEMOGLOBIN CONCENTRATION (time 7 day): 38.8 G/DL | MEAN CORPUSCULAR VOLUME (time 7 day): 61.25 fL | MONOCYTE (time 7 day): 1.17% | NEUTROPHIL (time 7 day): 11.5% | NUCLEATED RED BLOOD CELLS (time 7 day): 0 /100WBC | PLATELET COUNT (time 7 day): 1098.67 x10E3/uL | BASOPHIL (time 28 day): 0.42% | EOSINOPHIL (time 28 day): 0.58% | ERYTHROCYTE COUNT (time 28 day): 8.06 x10E6/uL | HEMATOCRIT (time 28 day): 48.44% | HEMOGLOBIN (time 28 day): 16.34 G/DL | LEUKOCYTE COUNT (time 28 day): 13.04 x10E3/uL | LYMPHOCYTE (time 28 day): 85.12% | MEAN CORPUSCULAR HEMOGLOBIN (time 28 day): 20.26 pg | MEAN CORPUSCULAR HEMOGLOBIN CONCENTRATION (time 28 day): 33.74 G/DL | MEAN CORPUSCULAR VOLUME (time 28 day): 60.1 fL | MONOCYTE (time 28 day): 1.44% | NEUTROPHIL (time 28 day): 11.28% | PLATELET COUNT (time 28 day): 1226 x10E3/uL | ALANINE AMINOTRANSFERASE (time 7 day): 66 u/L | ALBUMIN (time 7 day): 4.3 G/DL | ALKALINE PHOSPHATASE (time 7 day): 291.83 u/L | ASPARTATE AMINOTRANSFERASE (time 7 day): 80.5 u/L | BLOOD UREA NITROGEN (time 7 day): 15.67 mg/dL | CARBON DIOXIDE (time 7 day): 30 mmol/L | CHLORIDE (time 7 day): 101.67 MEQ/L | CHOLESTEROL (time 7 day): 69.67 mg/dL | CREATINE PHOSPHOKINASE (time 7 day): 363.33 u/L | CREATININE (time 7 day): 0.25 mg/dL | GLUCOSE (time 7 day): 146.5 mg/dL | LACTATE DEHYDROGENASE (time 7 day): 219.67 u/L | LIPASE (time 7 day): 11.33 u/L | PHOSPHORUS (time 7 day): 10.08 mg/dL | POTASSIUM (time 7 day): 5.22 MEQ/L | SODIUM (time 7 day): 144.67 MEQ/L | TOTAL BILIRUBIN (time 7 day): 0.12 mg/dL | TOTAL PROTEIN (time 7 day): 6.33 G/DL | URIC ACID (time 7 day): 0.75 mg/dL | ALANINE AMINOTRANSFERASE (time 28 day): 28.6 u/L | ALBUMIN (time 28 day): 3.94 G/DL | ALKALINE PHOSPHATASE (time 28 day): 254.6 u/L | ASPARTATE AMINOTRANSFERASE (time 28 day): 67.8 u/L | BLOOD UREA NITROGEN (time 28 day): 10.4 mg/dL | CHLORIDE (time 28 day): 104.6 MEQ/L | CHOLESTEROL (time 28 day): 57.6 mg/dL | CREATINE PHOSPHOKINASE (time 28 day): 224.8 u/L | CREATININE (time 28 day): 0.4 mg/dL | GLUCOSE (time 28 day): 140.6 mg/dL | PHOSPHORUS (time 28 day): 10.66 mg/dL | POTASSIUM (time 28 day): 6.58 MEQ/L | SODIUM (time 28 day): 148.6 MEQ/L | TOTAL BILIRUBIN (time 28 day): 0.24 mg/dL | TOTAL PROTEIN (time 28 day): 6.64 G/DL
